Values quoted from earlier work, collected in patent publication US20230398111A1, “ORAL FORMULATIONS OF NINTEDANIB AND METHOD OF MANUFACTURING THEREOF” (BDR PHARMACEUTICALS INTERNATIONAL PRIVATE LIMITED, priority 2020, published 2023).

Conditions: neutral conditions / neutral pH

solubility: poor solubility
Structure (SMILES): COC(=O)c1ccc2c(c1)NC(=O)/C2=C(\Nc1ccc(N(C)C(=O)CN2CCN(C)CC2)cc1)c1ccccc1 [Nintedanib esylate, methyl-2-hydroxy-3-[N-[4-[methyl-[2-(4-methylpiperazin-1-yl)acetyl]amino]phenyl]-C-phenylcarbonimidoyl]-1H-indole-6-carboxylate ethanesulfonic acid]
